Laboratory results published in patent US20220257722A1, “COMPOSITIONS AND METHODS OF TREATING AND PREVENTING SYSTEMIC COMPLICATIONS OF ACUTE ILLNESS” (United States Government As Represented By The Department …, priority 2019, published 2022).

Test system: rat small intestine
Test: LPS-induced small intestinal FD4 paracellular permeability in vivo (PV and arterial FD4)
Details: for TDG-induced inhibitory effect on PV FD4 levels: LPS 6 hr + TDG 6 hr; for TDG-induced inhibitory effect on PV FD4 levels / Arterial FD4 levels in LPS 6 hr + TDG 6 hr rats: inhibitor iv at t=-10 min or co-perfused; for Arterial FD4 levels in LPS 6 hr + TDG 6 hr rats: t=90 min
Protocol: LPS treatment. Animals were treated with LPS (5 mg/kg, ip) once at 9 am. For the acute experiments, the animals were fasted overnight and were treated with LPS 1, 3, or 6 hr before the anesthesia for small intestinal perfusion of FD4 as described herein. For the 24-hr experiments, the animals fed ad libitum were treated with LPS 24 hr before anesthesia induction used for the perfusion study. As a control, saline was injected ip at the corresponding time before the experiments. The animal groups were expressed as control, LPS 1 hr, LPS 3 hr, LPS 6 hr, and LPS 24 hr.
Small intestinal perfusion. The small intestinal perfusion from the duodenum, and portal vein (PV) cannulation were prepared by the modified methods. Under isoflurane anesthesia (2%), the animal was placed […] on a recirculating heating block system (Summit Medical Systems, Bend, Oreg., USA) in order to maintain body temperature at 36-37° C. Prewarmed saline was infused via the right femoral vein at 1.08 ml/h using a Harvard infusion pump (Harvard Apparatus, Holliston, Mass., USA). The abdomen was incised, and the PV was cannulated with a polyethylene (PE)-50 tube attached with 23G needle and fixed by methylacrylate adhesive at the insertion site. The tube was filled with heparinized saline enabling repeated blood sampling. Samples of 0.2 ml PV blood were collected every 15 min, followed by flushing with 0.2 ml heparinized saline. A polyethylene tube (diameter 5 mm) filled with PBS was inserted through the forestomach and tied at 0.5 cm caudal from the pyloric ring. After bolus perfusion of 2-ml phosphate buffer saline (PBS, 10 mM, pH 7.4) into the duodenum from the tube, followed by stabilization for ˜30 min, the time was set as t=0. FD4 (0.1 mM) in 10-ml PBS was slowly perfused at t=0 min for 30 sec. Blood samples were collected into a 0.5-ml tubes containing 1-μl each of EDTA (0.5 M) and the dipeptidyl peptidase-4 (DPP4) inhibitor NVP-728 (1 mM), and immediately centrifuged at 5,000× g for 5 min, after which the plasma was stored on ice or at −80 ° C. until use. At 90 min, after collection of PV samples, arterial blood was taken from abdominal aorta, followed by euthanasia by thoracotomy.
Appearance of FD4 into the PV and arterial plasma was assessed by fluorescence intensity measurement using a multi-mode microplate reader (Synergy-2, BioTek Instruments, Inc., Winooski, VT, USA). Fluorescence intensity in t=0 sample as background was subtracted from the fluorescence values measured in other time point samples. FD4 content was calculated according to the standard curve generated each time of measurement.
Drug treatment for the intestinal perfusion study. The following drugs were administered at the time after LPS treatment: the GLP2R partial agonist/antagonist GLP-2(3-33) (1 mg/kg; 280 nmol/kg, ip) was given immediately after LPS treatment (0 hr after LPS treatment); GLP-2 (380 μg/kg; 100 nmol/kg, ip) was given 6 hr after LPS treatment; a stable GLP-2 analog TDG (50 μg/kg; 13.3 nmol/kg) was ip injected 0, 3, 6, or 12 hr after LPS treatment or iv injected at t=0 min just before the perfusion of FD4 solution (6 or 24 hr after LPS treatment). In acute experiments, TDG was iv injected at t=0 min (6 hr after LPS treatment) with or without the pretreatment of the selective IGF1 receptor (IGF1R) tyrosine kinase inhibitor AEW541 (0.1 mg/kg, iv), the selective EGF receptor (EGFR) tyrosine kinase inhibitor PD153035 (10 μg/kg, iv) or PG97-269 (1 mg/kg, iv) at t=−10 min, or the co-perfusion of L-NAME (0.1 mM, pf) with FD4 solution.

Row | Molecule | LPS-induced increases in PV FD4 levels at 6 hr (L-NAME 0.1 mM alone co-perfused with FD4, no TDG) | TDG-induced inhibitory effect on PV FD4 levels | Arterial FD4 levels in LPS 6 hr + TDG 6 hr rats | PV FD4 levels (LPS 6 hr model, TDG 50 μg/kg ip 3 hr after LPS) | PV FD4 levels (LPS 6 hr model, TDG 50 μg/kg iv 6 hr after LPS (t=0 min)) | arterial FD4 levels (LPS 24 hr model, TDG 0 hr after LPS) | PV FD4 levels (LPS 24 hr model, TDG 50 μg/kg ip 0 hr after LPS) | PV FD4 levels (LPS 24 hr model, TDG 50 μg/kg ip 6 hr after LPS) | PV FD4 levels (LPS 24 hr model, TDG 50 μg/kg ip 12 hr after LPS) | PV FD4 levels (LPS 24 hr model, TDG 50 μg/kg iv 24 hr after LPS) | arterial FD4 levels (LPS 24 hr model, TDG 6 hr after LPS) | arterial FD4 levels (LPS 24 hr model, TDG 12 hr after LPS) | arterial FD4 levels (LPS 24 hr model, TDG 24 hr after LPS)
1 | COC(=O)[C@@H](N)CCCNC(=N)N[N+](=O)[O-] [L-NAME, Nω-nitro-L-arginine methyl ester] | no effect | reversed | reduced | – | – | – | – | – | – | – | – | – | –
2 | CC[C@H](C)[C@H](NC(=O)[C@H](Cc1ccccc1)NC(=O)[C@H](CC(=O)O)NC(=O)[C@H](CCCNC(=N)N)NC(=O)[C@H](C)NC(=O)[C@H](C)NC(=O)[C@H](CC(C)C)NC(=O)[C@H](CC(N)=O)NC(=O)[C@H](CC(=O)O)NC(=O)[C@H](CC(C)C)NC(=O)[C@@H](NC(=O)[C@@H](NC(=O)[C@H](CC(N)=O)NC(=O)[C@H](CCSC)NC(=O)[C@H](CCC(=O)O)NC(=O)[C@H](CC(=O)O)NC(=O)[C@H](CO)NC(=O)[C@H](Cc1ccccc1)NC(=O)[C@H](CO)NC(=O)CNC(=O)[C@H](CC(=O)O)NC(=O)CNC(=O)[C@@H](N)Cc1c[nH]cn1)[C@@H](C)O)[C@@H](C)CC)C(=O)N[C@@H](CC(N)=O)C(=O)N[C@@H](Cc1c[nH]c2ccccc12)C(=O)N[C@@H](CC(C)C)C(=O)N[C@H](C(=O)N[C@@H](CCC(N)=O)C(=O)N[C@H](C(=O)N[C@@H](CCCCN)C(=O)N[C@H](C(=O)N[C@H](C(=O)N[C@@H](CC(=O)O)C(=O)O)[C@@H](C)O)[C@@H](C)CC)[C@@H](C)O)[C@@H](C)CC [TDG] | – | – | – | reduced | reduced | no significant effect | little effect | reduced | reduced | little effect | inhibited | inhibited | no significant effect
3 | [Ac-His^1, D-Phe^2, Lys^15, Arg^16, Leu^27]-VIP(1-7)-GRF(8-27) (HFDAVFTNSYRKVLKRLSARKLLQDIL; HELM PEPTIDE1{[ac].H.[dF].D.A.V.F.T.N.S.Y.R.K.V.L.K.R.L.S.A.R.K.L.L.Q.D.I.L.[am]}$$$$V2.0; SMILES CC[C@H](C)[C@H](NC(=O)[C@H](CC(=O)O)NC(=O)[C@H](CCC(N)=O)NC(=O)[C@H](CC(C)C)NC(=O)[C@H](CC(C)C)NC(=O)[C@H](CCCCN)NC(=O)[C@H](CCCNC(=N)N)NC(=O)[C@H](C)NC(=O)[C@H](CO)NC(=O)[C@H](CC(C)C)NC(=O)[C@H](CCCNC(=N)N)NC(=O)[C@H](CCCCN)NC(=O)[C@H](CC(C)C)NC(=O)[C@@H](NC(=O)[C@H](CCCCN)NC(=O)[C@H](CCCNC(=N)N)NC(=O)[C@H](Cc1ccc(O)cc1)NC(=O)[C@H](CO)NC(=O)[C@H](CC(N)=O)NC(=O)[C@@H](NC(=O)[C@H](Cc1ccccc1)NC(=O)[C@@H](NC(=O)[C@H](C)NC(=O)[C@H](CC(=O)O)NC(=O)[C@@H](Cc1ccccc1)NC(=O)[C@H](Cc1c[nH]cn1)NC(C)=O)C(C)C)[C@@H](C)O)C(C)C)C(=O)N[C@@H](CC(C)C)C(N)=O) [PG97-269] | – | reversed | reduced | – | – | – | – | – | – | – | – | – | –
